Results: article PMC4941645, “Oxidative Stress Induced by Pt(IV) Pro-drugs Based on the Cisplatin Scaffold and Indole Carboxylic Acids in Axial Position” (Scientific Reports, 2016)

Assays:
[1] = Log P octanol/water, shake flask method with ICP-MS; assay type: physicochemical; conditions: n-octanol / 0.9% NaCl water, Pt by ICP-MS
Protocol: Partition coefficients (logP values) for octanol/water partition were determined in order to examine whether a correlation exists between lipophilicity and accumulation into cells. The log P values obtained (Table 3) give the trend in lipophilicity as mono indole acid complex < succinate complex < acetate complex < bis indole acid complex < benzoate complex for both the IAA and the IPA series.
The logP values of the Pt(IV) compounds were determined using the shake flask method. The respective Pt(IV) complex was dissolved in 0.9% NaCl (w/v) ultrapure water (presaturated with n-octanol). The solutions were sonicated and filtered to remove undissolved Pt(IV) compounds. The initial Pt concentrations were determined by ICP-MS. Subsequently, the Pt(IV) solutions were added to an equal volume of n-octanol (presaturated with 0.9% NaCl (w/v) ultrapure water). The heterogeneous mixtures were shaken vigorously for 30 min before centrifuging at 4000 rpm for 30 min to achieve phase separation. The final Pt concentration in the aqueous phase was determined again by ICP-MS. The logarithm of the ratio of Pt concentrations in the organic and aqueous phases was calculated to determine the logP values. All experiments were done in duplicate.

[2] = system: A549 lung carcinoma cells; assay: cells; conditions: for IC50: A549, 72 h, MTT, ± S.D.
Protocol: (§1) The cytotoxic activity of the complexes and of the uncoordinated ligands was evaluated by the MTT test on a panel of human tumor cell lines containing examples of pancreatic (BxPC3), colorectal (HCT-15), breast (MCF-7), cervical (A431), and lung (A549) cancers as well as of melanoma (A375). For comparison purposes, the cytotoxicity of cisplatin was evaluated under the same experimental conditions.
(§2) Cisplatin was dissolved in 0.9% NaCl solution.
(§3) Human breast (MCF-7), colon (HCT-15), lung (A549) and pancreatic (BxPC3) carcinoma cell lines together with melanoma (A375) cells were obtained from American Type Culture Collection (ATCC, Rockville, MD). The human ovarian cancer cell line 2008 and its cisplatin resistant variant, C13*, were kindly provided by Prof. G. Marverti (Department of Biomedical Science of Modena University, Italy). Human cervical carcinoma (A431) cells were kindly provided by Prof. F. Zunino (Division of Experimental Oncology B, Istituto Nazionale dei Tumori, Milan, Italy). Cell lines were maintained in the logarithmic phase at 37 °C in a 5% carbon dioxide atmosphere using the following culture media containing 10% fetal calf serum (Euroclone, Milan, Italy), antibiotics (50 units/mL penicillin and 50 μg/mL streptomycin) and 2 mM L-glutamine: (i) RPMI-1640 medium (Euroclone) for 2008, C13*, MCF-7, HCT-15, A431 and BxPC3 cells, (ii) F-12 HAM’S (Sigma Chemical Co.) for A549 cells, iii) DMEM (Sigma Chemical Co.) for A375 cells.
(§4) The growth inhibitory effect toward tumor cells was evaluated by means of the MTT assay. Briefly, (3–8) × 10^3 cells/well, dependent upon the growth characteristics of the cell line, were seeded in 96-well microplates in growth medium (100 μL). After 24 h, the medium was removed and replaced with fresh medium containing the compound to be studied at the appropriate concentration. Triplicate cultures were established for each treatment. After 24, 48, or 72 h, each well was treated with 10 μL of a 5 mg/mL MTT saline solution and, after 5 h of incubation, 100 μL of a sodium dodecylsulfate (SDS) solution in 0.01 M HCl was added. After an overnight incubation, cell growth inhibition was detected by measuring the absorbance of each well at 570 nm using a Bio-Rad 680 microplate reader. The mean absorbance for each drug dose was expressed as a percentage of the control, untreated well absorbance and plotted vs drug concentration. The IC50 values, the drug concentrations that decrease the mean absorbance at 570 nm to 50% of that of untreated control wells, were calculated from the dose–response curves with the four-parameter logistic model (4PL). The final value is the mean ± S.D. of at least three independent experiments performed in triplicate.

[3] = system: nuclear DNA of A375 cells; assay: Nuclear DNA platination (GF-AAS); assay type: cell-based, human; conditions: A375, 5 μM, 24 h
Protocol: It is well known that the main cellular target of platinum complexes is the DNA, and platination of nuclear DNA is a critical step in triggering the death of cancer cells by platinum-based drugs. On this basis, the amount of platinum bound to nuclear DNA was also assessed in A375 cells treated with the tested Pt(IV) complexes. Cells were treated for 24 h with 5 μM of the tested complexes, the nuclear DNA was isolated and the amount of Pt in each sample was determined by means of GF-AAS analysis. The results expressed as pg Pt/ng DNA are depicted in Fig. 7. […] In particular, 1P led to a roughly 60-fold higher DNA platination level with respect to cisplatin.
A375 cells (3 × 10^6) were seeded in 10 cm Petri dishes in 10 mL of culture medium. Subsequently, cells were treated with the tested complexes (5 μM) for 24 h. The DNA was extracted and purified by a commercial spin column quantification kit (Qiagen DNeasy Blood and Tissue Kit). Only highly purified samples (A260/A230 ≅ 1.8 and […]) were included for analysis to avoid any artifacts. The samples were completely dried and re-dissolved in 200 μL of Milli-Q water (18.2 MΩ) for at least 20 min at 65 °C in a shaking thermo-mixer, mineralized and analyzed for total Pt content by GF-AAS as described above.

[4] = system: C13* cisplatin-resistant ovarian cancer cells; assay: MTT cytotoxicity test, cisplatin-resistant C13*; assay type: cell-based, human; conditions: for IC50: C13* cisplatin-resistant, 72 h, MTT, ± S.D.; for RF (resistance factor): IC50 resistant (C13*) / parent line (2008)
Protocol: The cytotoxic properties of the complexes were also evaluated in a pair of tumor cell lines suitably selected for their sensitivity and resistance to cisplatin (adenocarcinoma cells 2008/C13^*). Cross-resistance profiles were evaluated by means of the resistance factor (RF), defined as the ratio between IC50 values calculated for the resistant cells and those obtained with the sensitive ones (Table 2). The phenomenon of cisplatin resistance is multifactorial in nature.
as §2, §3, §4

[5] = system: A375 melanoma cells; assay: MTT cytotoxicity test, A375; assay type: cell-based, human; conditions: A375, 72 h, ± S.D.
Protocol: as §1, §2, §3, §4

[6] = system: 2008 ovarian cancer cells; assay: MTT cytotoxicity test, cisplatin-sensitive 2008; assay type: cell-based, human; conditions: 2008 cisplatin-sensitive, 72 h, ± S.D.
Protocol: The cytotoxic properties of the complexes were also evaluated in a pair of tumor cell lines suitably selected for their sensitivity and resistance to cisplatin (adenocarcinoma cells 2008/C13^*). Cross-resistance profiles were evaluated by means of the resistance factor (RF), defined as the ratio between IC50 values calculated for the resistant cells and those obtained with the sensitive ones (Table 2). The phenomenon of cisplatin resistance is multifactorial in nature. Nevertheless, the main molecular mechanisms involved in drug resistance in C13* cancer cells have largely been identified. Indeed, in this cell line resistance is correlated to high cellular glutathione and thioredoxin reductase levels, reduced cellular drug uptake and enhanced repair of DNA damage. […] The RF values calculated for all derivatives were six- to nine-fold lower than that of cisplatin, clearly indicating the absence of cross-resistance.
as §2
Triplicate cultures were established for each treatment.

| Structure (SMILES) | Log P (octanol/water) [1] | IC50 [2] [µM] | DNA platination (in words) [3] | IC50 [4] [µM] | RF (resistance factor) [4] | IC50 [5] [µM] | IC50 [6] [µM] | times more cytotoxic than cisplatin [2] | DNA platination level, fold higher than cisplatin ([3]; GF-AAS) |
| --- | --- | --- | --- | --- | --- | --- | --- | --- | --- |
| [NH2][Pt]([NH2])([Cl])([Cl])([O]C(=O)Cc1c[nH]c2ccccc12)[O]C(=O)c1ccccc1 [Complex 3A] | −0.037 ± 0.04 | 2.59 ± 0.13 | most effective platination of cellular DNA | 6.52 ± 1.96 | 0.7 | 3.53 ± 0.6 | 9.97 ± 3.18 | – | – |
| [NH2][Pt]([NH2])([Cl])([Cl])([O]C(=O)CCC(=O)O)[O]C(=O)Cc1c[nH]c2ccccc12 [Complex 4A] | −0.190 ± 0.06 | 18.1 ± 4.32 | lowest DNA platination capability | > 50 | – | 48.5 ± 1.48 | > 50 | – | – |
| CC(=O)[O][Pt]([NH2])([NH2])([Cl])([Cl])[O]C(=O)Cc1c[nH]c2ccccc12 [Complex 5A] | −0.130 ± 0.05 | 2.8 ± 0.09 | lowest DNA platination capability | 46.6 ± 3.41 | 1.1 | 26.9 ± 4.04 | 41.2 ± 0.75 | – | – |
| [NH2][Pt]([NH2])([OH])([Cl])([Cl])[O]C(=O)Cc1c[nH]c2ccccc12 [Complex 1A] | −0.220 ± 0.04 | 3.62 ± 0.23 | most effective platination of cellular DNA | 2.51 ± 1.5 | 0.9 | 1.31 ± 0.82 | 2.89 ± 1.22 | four times | – |
| [NH2][Pt]([NH2])([OH])([Cl])([Cl])[O]C(=O)CCc1c[nH]c2ccccc12 [Complex 1P, cis,cis,trans-[Pt(NH3)2Cl2(IPA)(OH)]] | −0.110 ± 0.05 | 2.66 ± 0.54 | highest degree of DNA platination | 1.14 ± 0.5 | 0.8 | 0.76 ± 0.02 | 1.45 ± 0.37 | four times | roughly 60 |
